In test [1] the target is human, recombinant full-length HDAC1 (Homo sapiens (Human), UniProt Q13547). The experiment in a line: HDAC inhibition assay, HDAC1. Type of test: biochemical.
For test [2], the target named is human, recombinant full-length HDAC6 (Homo sapiens (Human), UniProt Q9UBN7). The experiment in a line: HDAC inhibition assay, HDAC6.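 Further: recombinant full-length human HDAC1 and HDAC6 made in Sf9 cells, compound preincubated 5-10 min then substrate reaction 2 h at 30 °C, ten threefold dilutions from 30 µM.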 The test is classed as biochemical.
Test [3] relates to histone H3 acetylation in B16 melanoma cells. The test is described as follows: Histone acetylation Western blot assay. Type of test: cell-based, murine. The method, then: (§1) […]. B16 melanoma cells were plated at 10^5 cells/well in 12 well plates and allowed to adhere overnight. A 50 mM stock of compound was then added by serial dilutions in complete medium to the indicated concentrations. Cells were incubated for 24 h under humidified conditions (37° C., 5% CO2). Wells were then washed with cold PBS, and cells were lysed in a buffer containing 10 mM Tris-HCl pH 8.0, 10% SDS, […], 100 mM DTT, and 1× protease inhibitor (Roche). Cells were lysed for 30 min on ice and then sonicated for 8 min (8 cycles of 30 s on/30 s rest). Cells were then boiled for 10 min with 6× gel loading buffer and resolved on 4-15% gradient gels and subsequently transferred onto nitrocellulose membranes. Membranes were blocked with 5% milk in PBS-T and detection of specific antigens using antibodies against acetyl-H3 and H3 (Cell Signaling), and acetyl-α-tubulin and α-tubulin (Sigma). Bands were detected by scanning blots with LI-COR Odyssey imaging system using both 700 and 800 channels.

The test system of test [4] is acetyl α-tubulin in B16 melanoma cells. The test is described as follows: Tubulin acetylation Western blot assay. Particulars: low nanomolar treatment, 24 h. The test is classed as cell-based, murine. The method, then: as §1
Background: Immunoblotting shows a protein as a band on a membrane.

A further test deals with HDAC3 (Homo sapiens (Human), UniProt O15379). The experiment in a line: HDAC isoform profile, HDAC3. Type of test: biochemical. Particulars: Table 3 isoform profile.
Test [5] deals with B16 murine melanoma cells. The test is described as follows: B16 melanoma cell growth inhibition assay (MTS). The test is classed as cell-based. The procedure: B16 murine melanoma cells were plated at 5×10^3/well in 96 well flat bottom plates. The following day, media was changed to that containing various concentrations of HDACi or matched DMSO vehicle concentrations diluted in complete medium done in triplicate. Cells were incubated for 48 hours at 37° C. and 5% CO2. […] Briefly, 20 μL of reagent were added per well and incubated at 37° C. for 3 hours. […] All values were then normalized and expressed as a percentage of medium control (100%).

For test [6], the system named is antigen-specific T-cell responses. The test is described as follows: Antigen-specific T-cell responses to vaccination in vivo. Set-up: species or system mice. The following applies: in vivo treatment.
The subject of test [7] is STAT3 phosphorylation and recruitment to the IL-10 gene promotor. The test is described as follows: STAT3 phosphorylation and recruitment to the IL-10 gene promotor in APCs. Type of test: cell-based.
In the next test the test system is melanoma. The experiment in a line: Anti-melanoma effect in vivo. The following applies: alone or in combination with anti-CLTA4.
Test [8] relates to naIve and anergic T-cells. The test is described as follows: In vitro antigen-presenting studies with treated macrophages. The test is classed as cell-based.
In another test the test system is macrophages. The test is described as follows: Immunological effects upon macrophages. The test is classed as cell-based.
Test [9] deals with JAK2/STAT3 phosphorylation. The test is described as follows: JAK2/STAT3 phosphorylation in B16 murine melanoma cells in vivo.
In the next test the test system is MCL. The test is described as follows: Antitumor effect in MCL-bearing mice. The test is classed as in vivo.
Setting [10] is: Table 1, mean of two experiments ± standard deviation, 10-point enzyme assay.

Results on 17 molecules are retold here after US9409858B2, “Selective histone deactylase 6 inhibitors” (H. LEE MOFFITT CANCER CENTER AND RESEARCH INSTITUTE, INC., priority 2012, dated 2016).

Each structure is given as a SMILES string. “Also recorded” adds a separate entry of the source.

human, recombinant full-length HDAC1, sequence (Q13547 whole entry): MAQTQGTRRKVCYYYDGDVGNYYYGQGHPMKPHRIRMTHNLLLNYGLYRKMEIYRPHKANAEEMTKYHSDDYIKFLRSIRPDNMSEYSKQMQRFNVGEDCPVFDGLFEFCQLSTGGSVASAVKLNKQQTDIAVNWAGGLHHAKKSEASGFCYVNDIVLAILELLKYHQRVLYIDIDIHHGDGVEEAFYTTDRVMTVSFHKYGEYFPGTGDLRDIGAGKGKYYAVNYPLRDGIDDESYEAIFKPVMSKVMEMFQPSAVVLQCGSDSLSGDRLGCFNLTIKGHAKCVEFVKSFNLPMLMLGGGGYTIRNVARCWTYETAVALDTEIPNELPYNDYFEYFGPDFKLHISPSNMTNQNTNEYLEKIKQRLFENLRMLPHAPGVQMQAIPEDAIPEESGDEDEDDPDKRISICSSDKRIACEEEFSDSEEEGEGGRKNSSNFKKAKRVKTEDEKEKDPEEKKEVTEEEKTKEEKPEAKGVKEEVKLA
human, recombinant full-length HDAC6, sequence (Q9UBN7 whole entry): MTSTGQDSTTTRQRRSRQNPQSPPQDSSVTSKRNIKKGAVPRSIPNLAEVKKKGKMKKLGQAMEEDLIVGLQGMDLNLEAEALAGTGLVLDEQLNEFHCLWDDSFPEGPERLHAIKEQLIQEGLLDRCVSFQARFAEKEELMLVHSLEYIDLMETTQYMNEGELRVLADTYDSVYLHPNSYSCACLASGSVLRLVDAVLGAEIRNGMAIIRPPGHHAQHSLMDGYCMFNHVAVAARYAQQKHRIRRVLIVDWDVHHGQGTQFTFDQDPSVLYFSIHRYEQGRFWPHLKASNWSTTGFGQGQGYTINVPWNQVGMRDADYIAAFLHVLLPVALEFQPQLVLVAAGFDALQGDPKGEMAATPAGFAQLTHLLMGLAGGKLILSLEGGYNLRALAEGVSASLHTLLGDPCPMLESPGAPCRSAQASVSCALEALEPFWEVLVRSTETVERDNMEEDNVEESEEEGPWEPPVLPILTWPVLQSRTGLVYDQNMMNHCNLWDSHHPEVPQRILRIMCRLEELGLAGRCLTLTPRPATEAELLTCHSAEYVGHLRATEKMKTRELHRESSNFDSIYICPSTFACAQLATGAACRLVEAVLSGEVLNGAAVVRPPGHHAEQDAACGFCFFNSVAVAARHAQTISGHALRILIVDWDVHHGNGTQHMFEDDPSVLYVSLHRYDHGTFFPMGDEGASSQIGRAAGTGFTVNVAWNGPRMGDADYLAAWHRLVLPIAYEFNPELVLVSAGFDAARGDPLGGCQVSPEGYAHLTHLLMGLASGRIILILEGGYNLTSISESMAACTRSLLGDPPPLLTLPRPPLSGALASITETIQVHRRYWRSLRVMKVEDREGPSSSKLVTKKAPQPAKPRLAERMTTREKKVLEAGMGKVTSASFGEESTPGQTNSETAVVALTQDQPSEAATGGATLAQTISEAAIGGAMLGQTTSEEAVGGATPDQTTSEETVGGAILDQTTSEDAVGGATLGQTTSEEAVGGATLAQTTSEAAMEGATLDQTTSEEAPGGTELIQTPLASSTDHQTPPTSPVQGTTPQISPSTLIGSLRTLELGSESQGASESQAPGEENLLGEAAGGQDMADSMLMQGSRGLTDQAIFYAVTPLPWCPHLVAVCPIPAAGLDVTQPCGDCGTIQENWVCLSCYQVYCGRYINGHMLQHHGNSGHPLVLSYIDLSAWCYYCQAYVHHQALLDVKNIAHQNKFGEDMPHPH
HDAC3, sequence (O15379 whole entry, canonical isoform): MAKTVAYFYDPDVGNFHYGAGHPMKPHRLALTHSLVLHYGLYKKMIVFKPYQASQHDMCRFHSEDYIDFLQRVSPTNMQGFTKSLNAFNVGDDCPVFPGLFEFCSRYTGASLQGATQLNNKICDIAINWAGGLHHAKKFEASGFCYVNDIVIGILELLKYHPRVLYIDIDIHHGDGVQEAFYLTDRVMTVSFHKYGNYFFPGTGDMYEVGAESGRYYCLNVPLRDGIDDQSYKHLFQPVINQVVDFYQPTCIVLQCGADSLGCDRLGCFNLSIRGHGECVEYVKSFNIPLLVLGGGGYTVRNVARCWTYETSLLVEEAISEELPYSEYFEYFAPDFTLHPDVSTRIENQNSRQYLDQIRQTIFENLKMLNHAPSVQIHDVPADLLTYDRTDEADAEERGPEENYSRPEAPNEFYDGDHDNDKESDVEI
HDAC3, sequence (Q9Y618 395-489 partner): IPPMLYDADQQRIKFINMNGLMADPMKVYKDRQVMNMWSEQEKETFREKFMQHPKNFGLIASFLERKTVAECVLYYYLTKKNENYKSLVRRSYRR

As a reminder, the IC50 is the concentration that gives 50% inhibition. Turning to `COc1ccccc1NC(=O)NCc1ccc(C(=O)NO)cc1` [Compound 1], the results for the IC50 in test [1] (setting [10]) and in test [2] (setting [10]) were 265 ± 59 nM and 139 ± 27 nM, respectively. The “Fold Selective (HDAC1/HDAC6)” value in test [2] (Table 1) was determined as 2.

Take `COc1ccccc1NC(=O)N(CCCN(C)C)Cc1ccc(C(=O)NO)cc1` [Compound 5a, 4-((1-(3-(dimethylamino)propyl)-3-(2-methoxyphenyl)ureido)methyl)-N-hydroxybenzamide]: the IC50 in test [1] (setting [10]) was 2550 ± 540 nM; in [2] (setting [10]), 458 ± 64 nM. For the same molecule, the “Fold Selective (HDAC1/HDAC6)” value in test [2] (Table 1) was determined as 6.

For the molecule `COc1ccccc1NC(=O)N(CCCO)Cc1ccc(C(=O)NO)cc1` [Compound 5b, N-hydroxy-4-((1-(3-hydroxypropyl)-3-(2-methoxyphenyl)ureido)methyl)-benzamide], the IC50 was found to be 1910 ± 570 nM in test [1] (setting [10]) and 2.38 ± 0.38 nM in test [2] (setting [10]). Also, the “Fold Selective (HDAC1/HDAC6)” value in test [2] (Table 1) was 803.

In the case of `COc1ccccc1NC(=O)N(CCc1c[nH]c2ccccc12)Cc1ccc(C(=O)NO)cc1` [Compound 5c, 4-((1-(2-(1H-indol-3-yl)ethyl)-3-(2-methoxyphenyl)ureido)methyl)-N-hydroxybenzamide], the IC50 in [1] (setting [10]) came out at 8950 ± 770 nM; in [2] (setting [10]), 468 ± 130 nM. Moreover, in [2] (Table 1), the “Fold Selective (HDAC1/HDAC6)” value is 19.

As for `COc1ccccc1NC(=O)N(CCc1ccc(O)cc1)Cc1ccc(C(=O)NO)cc1` [Compound 5d, N-hydroxy-4-((1-(4-hydroxyphenethyl)-3-(2-methoxyphenyl)ureido)methyl)-benzamide], the IC50 came out at 1690 ± 120 nM in test [1] (setting [10]) and 5.8 ± 0.5 nM in [2] (setting [10]). Further, the “Fold Selective (HDAC1/HDAC6)” value in test [2] (Table 1) was 292.

Consider `COCCCN(Cc1ccc(C(=O)NO)cc1)C(=O)Nc1ccccc1` [Compound 5e, N-hydroxy-4-((1-(3-methoxypropyl)-3-phenylureido)methyl)benzamide], for which the IC50 in test [1] (setting [10]) was found to be 5180 ± 130 nM; in test [2] (setting [10]), 11.7 ± 1.7 nM. Also, in test [2] (Table 1), the “Fold Selective (HDAC1/HDAC6)” value stood at 443.

In the case of `COCCN(Cc1ccc(C(=O)NO)cc1)C(=O)Nc1ccccc1` [Compound 5f, N-hydroxy-4-((1-(2-methoxyethyl)-3-phenylureido)methyl)benzamide], the IC50 is 2250 ± 420 nM in [1] (setting [10]) and 9.26 ± 0.66 nM in [2] (setting [10]). The “Fold Selective (HDAC1/HDAC6)” value in test [2] (Table 1) amounted to 243.

Regarding `CCCCN(Cc1ccc(C(=O)NO)cc1)C(=O)Nc1ccccc1` [Compound 5g, 4-((1-butyl-3-phenylureido)methyl)-N-hydroxybenzamide], the “histone H3 acetylation” value is given as “observable increase in histone H3 acetylation” in [3] (concentrations of 1 and 10 μM); “without a concamanent elevation of histone H3 acetylation” in [3] (low nanomolar treatment, 24 h). Moreover, the “acetyl α-tubulin levels” value in test [4] is given as “dose-dependant increase of acetyl α-tubulin levels; also recorded: increased acetyl-tubulin levels”. 6680 ± 1750 nM corresponded to half-maximal inhibition against HDAC3 (IC50).

For `O=C(NO)c1ccc(CN(CCc2ccccc2)C(=O)Nc2ccccc2)cc1` [Compound 5h, N-hydroxy-4-((1-phenethyl-3-phenylureido)methyl)benzamide], the IC50 in test [1] (setting [10]) is 3120 ± 640 nM; in [2] (setting [10]), 14 ± 0.75 nM. Besides, the “growth inhibition of B16 melanoma cells (in words)” value in test [5] is “capable of inhibiting the growth of B16 melanoma cell line”. Further, the “Fold Selective (HDAC1/HDAC6)” value in [2] (Table 1) stood at 222.

For `CCCCN(C(=O)NCc1ccc(C(=O)NO)cc1)c1ccccc1` [Compound 8a, 4-((3-butyl-3-phenylureido)methyl)-N-hydroxybenzamide], the IC50 in [1] (setting [10]) amounted to 8120 ± 600 nM; in [2] (setting [10]) it was 25.2 ± 2.5 nM. In test [2] (Table 1), the “Fold Selective (HDAC1/HDAC6)” value is 322.

Consider `COc1ccc(NC(=O)NCc2ccc(C(=O)NO)cc2)cc1` [Compound 9a], for which the results for the 50% inhibitory concentration (IC50) in [1] (setting [10]) and in test [2] (setting [10]) were 1060 nM and 8.3 nM, respectively. Further, in test [2] (Table 1), the “Fold Selective (HDAC1/HDAC6)” value was determined as 128.

For `Cc1ccnc(NC(=O)NCc2ccc(C(=O)NO)cc2)c1` [Compound 9b], the IC50 in test [1] (setting [10]) was 579 nM; in [2] (setting [10]) it was 2.2 nM. Also, the “Fold Selective (HDAC1/HDAC6)” value in test [2] (Table 1) was determined as 263.

As to `Cc1cc(NC(=O)NCc2ccc(C(=O)NO)cc2)no1` [Compound 9c], the IC50 came to 1000 nM in test [1] (setting [10]) and 6.9 nM in [2] (setting [10]). Moreover, the “Fold Selective (HDAC1/HDAC6)” value in [2] (Table 1) stood at 145.

In the case of `COc1ccccc1N1C(=O)N(Cc2ccc(C(=O)NO)cc2)C(C)(C)C1=O` [Compound 10a], the IC50 in [1] (Table 2, cyclic urea compounds) was 28600 nM. Moreover, in test [2] (Table 2, cyclic urea compounds), the “Fold Selective (HDAC1/HDAC6)” value is reported as 386 and the IC50 was determined as 74.2 nM.

For the molecule `CC(C)[C@@H]1C(=O)N(c2ccccc2)C(=O)N1Cc1ccc(C(=O)NO)cc1` [Compound 10b], the IC50 in test [1] (Table 2, cyclic urea compounds) was determined as 11800 nM. In test [2] (Table 2, cyclic urea compounds), the “Fold Selective (HDAC1/HDAC6)” value is reported as 531 and the IC50 was 22.2 nM.

In the case of `O=C(NO)c1ccc(CN2C(=O)N[C@@H](Cc3ccccc3)C2=O)cc1` [Compound 11a], the IC50 in test [1] (Table 2, cyclic urea compounds) is 7560 nM. Also, in [2] (Table 2, cyclic urea compounds), the “Fold Selective (HDAC1/HDAC6)” value amounted to 295 and the IC50 came to 25.6 nM.

As to `CN1CCc2c(c3ccccc3n2Cc2ccc(C(=O)NO)cc2)C1` [Tubastatin A], the “antigen-specific T-cell responses to vaccination” value in test [6] is “augments antigen-specific CD4+ T-cell responses to vaccination”. Further, the “antigen-specific T-cell responses to vaccination” value in test [6] (listed as Tubastatin-A) was “enhances antigen-specific T-cell responses to vaccination”. For the same molecule, the “STAT3 phosphorylation and recruitment to the IL-10 gene promotor” value in [7] was “decreased STAT3 phosphorylation and recruitment to the IL-10 gene promotor”. The anti-melanoma effect result in the test with melanoma is “anti-melanoma effect”. Moreover, the “activation of T-cells by treated macrophages” value in test [8] was “better activators of naIve T-cells and restore the responsiveness of anergic T-cells”. Moreover, in the test with macrophages, the IL-10 production entry is “inhibits IL-10 production” and the “expression of co-stimulatory molecules” value is “increased the expression of co-stimulatory molecules”. Also, in [9], the JAK2/STAT3 phosphorylation result is “inhibits JAK2/STAT3 phosphorylation”. For the same molecule, the antitumor effect entry in the test on MCL is on record as “strong antitumor effect”.
